From US20260041089A1, “PLANT BIOSTIMULANT AND METHODS OF MAKING AND USING SAME” (Solugen, Inc., priority 2022, published 2026)
Several values for one entry are separate records, joined by “and”; a condition that tells them apart may be missing. Identical values can stand only once.

Tested on: microgreens
Assay: Radish microgreens growth under controlled pH 5, 1% solutions (Example 2)
Assay type: in vivo
Details: for germination rate / root hair development: Day 2; for Plant dry weight: harvest Day 8, dried 3 days
Description: The biostimulant effect of a PBC under controlled pH and composition conditions was investigated. Particularly, a second batch of testing was performed to verify that biostimulant effect observed in Example 1 was not an artifact of differing pH or composition. In this set, samples having a controlled yet differing compositions were compared. The first sample set comprised the sugar sucrose while the second sample comprised citric acid. Citric acid was reported to promote seed germination, all under the same pH. Therefore, solutions of 1% citric acid, sucrose, and a PBC were prepared and adjusted to a pH of 5. Two pots were filled with 150 g of each solution. About 200 seeds were placed on top of each soaked growing mats. This second batch was left indoors at room temperature for 8 days.
Microgreens were harvested on Day 8. They were then dried for 3 days, and the dry weights were recorded.

[1] = 1% solution, pH 5, harvest Day 8

O=C(O)CC(O)(CC(=O)O)C(=O)O [Citric Acid, citric acid]
germination rate (1% solution, pH 5): 100%
Length of Root [1]: 0.82 ± 0.25 cm and 0.71 ± 0.22 cm
Plant dry weight (1% solution, pH 5): 1.99 g and 1.81 g
overall growth at harvest (Table 2 summary) (1 wt. %, Day 8): least overall growth in every parameter considered
root hair development: minimal root hair development
growth observation (Day 4): stunted growth with no stem or root hair development
growth observation (Day 7): no stem development and poor overall growth

OC[C@H]1O[C@@](CO)(O[C@H]2O[C@H](CO)[C@@H](O)[C@H](O)[C@H]2O)[C@@H](O)[C@@H]1O [Sucrose, sucrose]
germination rate (1% solution, pH 5): 99%
Length of Root [1]: 2.61 ± 0.43 cm and 2.49 ± 1.0 cm
Length of Stem [1]: 3.86 ± 1.10 cm and 4.27 ± 1.03 cm
Plant dry weight (1% solution, pH 5): 3.0 g and 2.29 g
root hair development: most root hair development
leaf development (Day 3): most leaf development
growth observation (Day 7): healthy leaf growth
